From publication PMC2720641 (Biochemistry, 2009)

Key:
murine COX-2 (mCOX-2) [1] = target: T1, murine COX-2 (mCOX-2) (Mus musculus, UniProt Q05769); test: Instantaneous inhibition of mCOX-2 oxygenation of 2-AG; type: biochemical; settings: substrate 2-AG
T1 sequence (Q05769 18-604): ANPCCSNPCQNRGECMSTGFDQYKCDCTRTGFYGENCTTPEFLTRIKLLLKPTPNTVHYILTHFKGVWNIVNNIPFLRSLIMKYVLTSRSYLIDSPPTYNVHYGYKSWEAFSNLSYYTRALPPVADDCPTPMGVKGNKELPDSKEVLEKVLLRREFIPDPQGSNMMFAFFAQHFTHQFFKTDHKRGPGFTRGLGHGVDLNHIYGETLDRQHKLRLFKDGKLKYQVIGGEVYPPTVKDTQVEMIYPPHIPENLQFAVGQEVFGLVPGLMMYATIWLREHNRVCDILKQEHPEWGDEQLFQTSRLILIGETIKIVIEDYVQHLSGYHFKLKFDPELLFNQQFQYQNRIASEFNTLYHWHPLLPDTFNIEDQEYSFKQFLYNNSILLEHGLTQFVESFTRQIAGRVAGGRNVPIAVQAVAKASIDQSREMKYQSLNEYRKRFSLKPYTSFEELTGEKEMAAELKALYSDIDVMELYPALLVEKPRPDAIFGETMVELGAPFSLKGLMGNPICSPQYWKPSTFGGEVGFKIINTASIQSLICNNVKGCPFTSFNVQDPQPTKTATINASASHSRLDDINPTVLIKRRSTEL

murine COX-2 (mCOX-2) [2] = target: T1, murine COX-2 (mCOX-2); test: Instantaneous inhibition of mCOX-2 oxygenation of AA; type: biochemical; settings: substrate AA
mCOX-2 = target: T2, mCOX-2 (Mus musculus, UniProt Q05769); test: IC50 for inhibition of mCOX-2 oxygenation of AA after preincubation; type: biochemical, murine; settings: read-out: IC50 for inhibition of AA oxygenation; 2 min preincubation; 50 μM AA
T2 sequence (Q05769 18-604): T1 sequence (Q05769 18-604)

Row | Structure (SMILES) | Mode of inhibition of 2-AG oxygenation (murine COX-2 (mCOX-2) [1]) | Oxygenation of 2-AG at 5 μM inhibitor (murine COX-2 (mCOX-2) [1]; mefenamate 5 μM) | Mode of inhibition of AA oxygenation (murine COX-2 (mCOX-2) [2]) | IC50 (mCOX-2) [µM]
1 | Cc1cccc(Nc2ccccc2C(=O)O)c1C [mefenamic acid] | noncompetitive | completely inhibited | competitive | 
2 | COc1ccc2c(c1)c(CC(=O)O)cn2C(=O)c1ccc(Cl)cc1 [2′-des-methylindomethacin] |  |  |  | ~500
